Drawing on ChEMBL document CHEMBL5465560, “Selectivity Literature for EUbOPEN Chemogenomic Library” (2024), this text covers % of control, % binding and % of inhibition for five compounds.

Structures are written as SMILES.

Experiment [1] deals with ALK tyrosine kinase receptor (Homo sapiens, UniProt Q9UM73). In words: Selectivity interaction (KinomeScan (DiscoverX)) EUB0000666a ALK. The settings on record: at 10 µM.
Experiment [2] addresses T1, Mitogen-activated protein kinase kinase kinase 19 (Homo sapiens) (UniProt Q56UN5).
T1 sequence (whole entry): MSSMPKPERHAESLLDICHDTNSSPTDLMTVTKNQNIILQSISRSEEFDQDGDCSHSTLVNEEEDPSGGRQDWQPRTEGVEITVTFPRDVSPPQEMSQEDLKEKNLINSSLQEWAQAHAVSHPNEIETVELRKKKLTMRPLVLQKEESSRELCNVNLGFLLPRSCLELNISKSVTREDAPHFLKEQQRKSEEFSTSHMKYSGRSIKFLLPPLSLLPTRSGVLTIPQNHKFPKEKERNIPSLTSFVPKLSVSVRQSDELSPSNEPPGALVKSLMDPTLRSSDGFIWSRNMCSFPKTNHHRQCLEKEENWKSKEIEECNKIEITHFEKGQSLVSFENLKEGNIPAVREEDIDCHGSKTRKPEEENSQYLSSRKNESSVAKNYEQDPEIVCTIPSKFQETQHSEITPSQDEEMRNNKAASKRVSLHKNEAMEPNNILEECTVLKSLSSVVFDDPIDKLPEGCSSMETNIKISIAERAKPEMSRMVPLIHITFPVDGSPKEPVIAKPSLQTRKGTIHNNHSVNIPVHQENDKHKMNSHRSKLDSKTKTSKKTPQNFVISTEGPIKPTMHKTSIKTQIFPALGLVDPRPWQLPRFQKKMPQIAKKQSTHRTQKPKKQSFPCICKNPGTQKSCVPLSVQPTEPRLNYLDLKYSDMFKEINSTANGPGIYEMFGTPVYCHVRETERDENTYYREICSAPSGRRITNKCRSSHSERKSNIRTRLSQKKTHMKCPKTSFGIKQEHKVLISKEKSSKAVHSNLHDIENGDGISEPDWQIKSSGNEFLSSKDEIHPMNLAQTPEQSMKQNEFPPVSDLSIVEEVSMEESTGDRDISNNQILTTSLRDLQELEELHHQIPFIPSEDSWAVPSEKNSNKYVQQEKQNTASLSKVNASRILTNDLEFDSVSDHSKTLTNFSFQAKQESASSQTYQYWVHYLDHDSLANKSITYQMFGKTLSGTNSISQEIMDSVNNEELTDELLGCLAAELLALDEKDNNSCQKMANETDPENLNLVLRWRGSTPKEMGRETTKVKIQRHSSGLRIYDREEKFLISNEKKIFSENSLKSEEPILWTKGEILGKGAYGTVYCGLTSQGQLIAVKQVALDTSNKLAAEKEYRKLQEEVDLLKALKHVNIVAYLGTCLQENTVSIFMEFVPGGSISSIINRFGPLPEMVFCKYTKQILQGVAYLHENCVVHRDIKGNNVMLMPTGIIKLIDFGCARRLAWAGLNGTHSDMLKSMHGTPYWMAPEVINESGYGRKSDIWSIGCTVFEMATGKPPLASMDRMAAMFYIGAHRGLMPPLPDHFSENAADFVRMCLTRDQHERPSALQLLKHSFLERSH
In words: Selectivity interaction (KinomeScan (DiscoverX)) EUB0000229b MAP3K19. To be noted: at 10 µM.

Experiment [3] has as its target Vascular endothelial growth factor receptor 1 (Homo sapiens) (UniProt P17948). In words: Selectivity interaction (KinomeScan (DiscoverX)) EUB0001619a FLT1. The settings on record: at 1 µM.
Experiment [4] concerns the target T2, Serine/threonine-protein kinase Sgk1 (Homo sapiens) (UniProt O00141).
T2 sequence (whole entry): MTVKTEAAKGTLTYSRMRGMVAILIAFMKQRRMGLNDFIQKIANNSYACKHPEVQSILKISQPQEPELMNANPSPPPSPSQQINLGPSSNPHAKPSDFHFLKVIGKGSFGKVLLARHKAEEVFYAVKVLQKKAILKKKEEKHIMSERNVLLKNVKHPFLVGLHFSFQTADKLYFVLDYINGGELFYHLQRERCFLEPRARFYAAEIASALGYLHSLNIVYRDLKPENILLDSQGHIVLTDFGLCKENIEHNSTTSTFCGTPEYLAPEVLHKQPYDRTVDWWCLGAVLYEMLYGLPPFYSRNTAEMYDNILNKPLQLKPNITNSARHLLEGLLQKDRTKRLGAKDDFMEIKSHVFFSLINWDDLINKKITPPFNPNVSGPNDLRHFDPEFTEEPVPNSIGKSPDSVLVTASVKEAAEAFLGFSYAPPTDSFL
Kind of experiment: Selectivity interaction (ActivX KiNativ screen (kinase selectivity in THP-1 cell lysates)) EUB0000639a SGK1. It counts as subcellular. To be noted: lysate.

The target in experiment [5] is T3, Tyrosine-protein kinase ZAP-70 (Homo sapiens) (UniProt P43403).
T3 sequence (whole entry): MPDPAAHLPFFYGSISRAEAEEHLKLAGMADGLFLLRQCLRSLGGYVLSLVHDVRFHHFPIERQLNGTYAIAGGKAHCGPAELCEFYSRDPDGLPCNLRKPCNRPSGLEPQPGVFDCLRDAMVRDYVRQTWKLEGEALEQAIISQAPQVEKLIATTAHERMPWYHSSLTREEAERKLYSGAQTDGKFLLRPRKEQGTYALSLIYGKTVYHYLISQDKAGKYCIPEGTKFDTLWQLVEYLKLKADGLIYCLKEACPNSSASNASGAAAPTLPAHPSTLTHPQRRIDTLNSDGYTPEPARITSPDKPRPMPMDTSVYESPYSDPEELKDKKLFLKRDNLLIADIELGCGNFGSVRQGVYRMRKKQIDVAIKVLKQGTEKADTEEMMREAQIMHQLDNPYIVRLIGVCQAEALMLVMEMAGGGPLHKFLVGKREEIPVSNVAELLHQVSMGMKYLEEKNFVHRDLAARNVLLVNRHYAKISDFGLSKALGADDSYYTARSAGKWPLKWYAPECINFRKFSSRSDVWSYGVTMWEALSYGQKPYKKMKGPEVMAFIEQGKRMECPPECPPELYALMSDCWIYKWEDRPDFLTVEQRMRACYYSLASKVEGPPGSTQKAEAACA
The settings on record: at 10 µM.

Chain of Vascular endothelial growth factor receptor 1 (Homo sapiens) (P17948 whole entry): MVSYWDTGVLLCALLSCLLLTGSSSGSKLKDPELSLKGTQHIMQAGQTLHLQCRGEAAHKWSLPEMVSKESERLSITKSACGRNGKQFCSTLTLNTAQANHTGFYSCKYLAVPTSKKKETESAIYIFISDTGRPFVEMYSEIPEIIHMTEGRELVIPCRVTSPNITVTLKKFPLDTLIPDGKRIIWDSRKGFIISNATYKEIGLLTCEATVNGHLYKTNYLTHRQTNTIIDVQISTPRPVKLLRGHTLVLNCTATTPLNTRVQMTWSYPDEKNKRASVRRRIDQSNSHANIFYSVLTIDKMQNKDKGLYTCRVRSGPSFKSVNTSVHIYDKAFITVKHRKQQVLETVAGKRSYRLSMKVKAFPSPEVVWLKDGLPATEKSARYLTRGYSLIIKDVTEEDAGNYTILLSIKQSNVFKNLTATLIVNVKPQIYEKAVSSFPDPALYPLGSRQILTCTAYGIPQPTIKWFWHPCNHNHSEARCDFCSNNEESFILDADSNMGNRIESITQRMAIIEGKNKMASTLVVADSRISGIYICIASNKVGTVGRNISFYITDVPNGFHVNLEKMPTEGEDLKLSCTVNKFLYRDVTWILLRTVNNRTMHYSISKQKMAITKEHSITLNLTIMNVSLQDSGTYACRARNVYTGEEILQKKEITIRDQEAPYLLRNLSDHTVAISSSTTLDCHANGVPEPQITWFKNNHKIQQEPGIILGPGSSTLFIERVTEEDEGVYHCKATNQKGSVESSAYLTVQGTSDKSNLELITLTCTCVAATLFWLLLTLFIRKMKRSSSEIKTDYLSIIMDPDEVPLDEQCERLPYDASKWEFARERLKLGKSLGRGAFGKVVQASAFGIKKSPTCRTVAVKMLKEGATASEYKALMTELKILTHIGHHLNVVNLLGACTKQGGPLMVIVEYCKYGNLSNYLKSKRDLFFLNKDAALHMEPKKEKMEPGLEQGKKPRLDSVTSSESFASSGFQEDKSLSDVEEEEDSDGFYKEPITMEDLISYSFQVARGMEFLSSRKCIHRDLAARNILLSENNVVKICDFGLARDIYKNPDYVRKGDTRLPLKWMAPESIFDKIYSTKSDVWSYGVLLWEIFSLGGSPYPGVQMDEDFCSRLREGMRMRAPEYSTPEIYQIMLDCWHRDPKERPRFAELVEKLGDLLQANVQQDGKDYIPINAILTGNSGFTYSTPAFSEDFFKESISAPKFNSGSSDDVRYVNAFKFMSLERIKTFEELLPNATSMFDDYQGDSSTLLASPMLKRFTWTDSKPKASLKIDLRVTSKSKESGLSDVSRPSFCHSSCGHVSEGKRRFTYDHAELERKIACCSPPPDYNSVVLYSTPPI
Chain of ALK tyrosine kinase receptor (Q9UM73 19-1620 limits assumed): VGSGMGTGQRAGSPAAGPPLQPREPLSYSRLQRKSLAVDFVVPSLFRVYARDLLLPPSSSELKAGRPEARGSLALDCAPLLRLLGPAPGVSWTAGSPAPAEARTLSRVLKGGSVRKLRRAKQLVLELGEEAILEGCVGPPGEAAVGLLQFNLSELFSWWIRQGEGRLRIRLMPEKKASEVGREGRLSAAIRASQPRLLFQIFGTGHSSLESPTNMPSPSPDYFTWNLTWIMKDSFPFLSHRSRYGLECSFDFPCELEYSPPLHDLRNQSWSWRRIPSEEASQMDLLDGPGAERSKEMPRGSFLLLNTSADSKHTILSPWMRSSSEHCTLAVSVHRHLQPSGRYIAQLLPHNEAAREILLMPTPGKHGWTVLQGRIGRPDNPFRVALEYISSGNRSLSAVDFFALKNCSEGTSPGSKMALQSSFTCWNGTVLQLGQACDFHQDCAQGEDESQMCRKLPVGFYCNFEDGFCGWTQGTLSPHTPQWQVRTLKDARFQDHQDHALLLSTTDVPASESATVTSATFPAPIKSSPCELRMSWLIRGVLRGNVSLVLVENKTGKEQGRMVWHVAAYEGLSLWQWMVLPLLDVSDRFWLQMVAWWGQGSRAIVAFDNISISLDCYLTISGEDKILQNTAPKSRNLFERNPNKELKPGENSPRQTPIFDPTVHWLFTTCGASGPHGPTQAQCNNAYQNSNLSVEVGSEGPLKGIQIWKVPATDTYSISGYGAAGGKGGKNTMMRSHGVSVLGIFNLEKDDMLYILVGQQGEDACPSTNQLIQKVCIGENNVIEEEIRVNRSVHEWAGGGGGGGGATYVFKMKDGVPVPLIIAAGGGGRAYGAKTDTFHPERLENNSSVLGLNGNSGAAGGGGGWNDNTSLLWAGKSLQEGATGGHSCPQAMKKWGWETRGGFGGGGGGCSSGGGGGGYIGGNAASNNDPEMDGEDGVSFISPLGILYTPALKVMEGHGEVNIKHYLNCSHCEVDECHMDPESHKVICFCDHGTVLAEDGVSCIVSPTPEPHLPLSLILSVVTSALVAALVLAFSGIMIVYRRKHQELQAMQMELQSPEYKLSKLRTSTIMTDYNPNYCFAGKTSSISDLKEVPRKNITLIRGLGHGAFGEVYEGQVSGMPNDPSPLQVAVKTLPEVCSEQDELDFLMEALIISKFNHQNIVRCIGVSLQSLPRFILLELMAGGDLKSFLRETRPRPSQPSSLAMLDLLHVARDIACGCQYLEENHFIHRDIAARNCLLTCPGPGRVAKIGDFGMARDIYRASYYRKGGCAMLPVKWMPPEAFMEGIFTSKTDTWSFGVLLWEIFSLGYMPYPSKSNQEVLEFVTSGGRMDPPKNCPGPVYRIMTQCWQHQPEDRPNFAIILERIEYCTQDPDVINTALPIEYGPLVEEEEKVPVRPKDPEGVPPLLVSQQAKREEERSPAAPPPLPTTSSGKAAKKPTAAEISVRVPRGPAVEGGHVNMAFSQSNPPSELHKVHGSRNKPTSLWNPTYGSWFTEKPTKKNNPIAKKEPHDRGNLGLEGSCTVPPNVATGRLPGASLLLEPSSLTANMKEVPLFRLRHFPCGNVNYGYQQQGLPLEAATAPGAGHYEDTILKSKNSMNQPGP

For the compound `O=C(NOC[C@H](O)CO)c1ccc(F)c(F)c1Nc1ccc(I)cc1F`, the % of control in experiment [1] was 100%. `COc1cc(N(C)c2ccnc3ccc(C(F)(F)F)cc23)cc(OC)c1OC` returned a % binding in experiment [2] of 94%. In experiment [3], `N#Cc1cccc(-c2c[nH]c3ncnc(N4CCOCC4)c23)c1` had a % of control of 73%. Regarding `CC[C@@H]1[C@H](F)C(=O)N[C@@H]1COc1nccc2cc(C(N)=O)c(OC)cc12` [ZIMLOVISERTIB], the % of inhibition was -1% in experiment [4] (at 0.01 µM); 3.1% in experiment [4] (at 0.04 µM); -5.7% in experiment [4] (at 0.2 µM); -1% in experiment [4] (at 1 µM); -1.4% in experiment [4] (at 5 µM).

For the compound `CCN(CC)CCCCNc1ncc2cc(-c3cc(OC)cc(OC)c3)c(NC(=O)NC(C)(C)C)nc2n1`, the % of control in experiment [5] was found to be 100%.
